Measured values: patent US20180289957A1, “REMINERALISATION OF CALCIFIED TISSUE” (Reminova Ltd., priority 2008, published 2018)

System: extracted incisor tooth
Assay: Tooth-whitening effect on extracted incisor tooth, images before and after treatment
Details: 2 minutes pre-conditioning with solution, no remineralising agent
Source text: This image was taken prior to any treatment being carried out.
The dark discolourations in the enamel of the crown of the tooth adjacent to the cavity have also disappeared.

Compound: OCl [hypochlorite, sodium hypochlorite]
- tooth discolouration, difference versus before treatment: very little difference
